Each block holds one compound with its values, some of them ahead of it.
How the values were obtained:
Assay type in all cases: physicochemical
[1] = Absorption and fluorescence spectroscopy, Cy5.5 dimers (Examples 2 and 3); settings: for λem, position of the emission maximum: excitation 630 nm
Procedure: (§1) Absorption spectra were recorded on a Shimadzu UV-2700i spectrophotometer and fluorescence spectra on a Horiba Fluoromax 4 spectrofluorometer. Fluorescence emission spectra were systematically recorded at 630 nm excitation wavelength at 20° C. All fluorescence spectra were corrected for instrumental effects. Fluorescence quantum yields (QY) were measured using Rhodamine 800 in EtOH as a reference (QY=25%).^[ref] Turn-ON were calculated as a ratio of OY of compounds in EtOH to OY in water. • Ref A. Alessi, M. Salvalaggio, G. Ruzzon, J. Lumin. 2013, 134, 385-389. DY647 Dimers
as §1, with “QY” for “OY”

[2] = Absorption and fluorescence spectroscopy of mCy5.5-PEG and dCy5.5-PEG in solvents of different polarities (Example 1); settings: for λem, position of the emission maximum: excitation 630 nm, 20° C.; for Difference in QY between organic solvents and water (turn-on response): QY in organic solvents vs water; for Fluorescence maxima: in organic solvents
Source text: All fluorescence spectra were corrected for instrumental effects. […] To confirm the formation of the intramolecular dimer, the absorption spectra of two dyes were compared. […] This new band can be assigned to the non-fluorescent intramolecular dimer of the H-aggregate type, which is highly favored in aqueous medium. […] As a consequence, dCy5.5-PEG presented excellent fluorogenic properties, with up to 140-fold higher QY in organic solvents than in water. […] As the absorption spectrum of dCy5.5-PEG in the open form (in MeOH) is the same as that of the cyanine 2, the extinction coefficient of the dimer should be ca double of the monomer. The extinction coefficient for the cyanine 2, was measured to be 222 000 M^−1 cm^−1 in MeOH, which allows estimation of the extinction coefficient for the dimer dCy5.5-PEG: 222 000 M^−1 cm^−1×2=444 000 M^−1 cm^−1. Then, given its strong QY (56% in DMF), dCy5.5-PEG appears to be one of the brightest fluorogenic NIR dyes reported to date.

[3] = Absorption and fluorescence spectroscopy, DY647 dimers (Examples 2 and 3); settings: for λem, position of the emission maximum: excitation 600 nm; for Fluorescence turn-on: ratio of quantum yields in EtOH to that in water (200 nM), DY647 dimers
Procedure: Absorption spectra were recorded on a Shimadzu UV-2700i spectrophotometer and fluorescence spectra on a Horiba Fluoromax 4 spectrofluorometer. Fluorescence emission spectra were systematically recorded at 600 nm excitation wavelength at 20° C. All fluorescence spectra were corrected for instrumental effects. Fluorescence quantum yields (QY) were measured using DID in MeOH as a reference (QY=33%).^[ref] Turn-ON were calculated as a ratio of QY of compounds in EtOH to QY in water. • Ref I. Texier, et al., J. Biomed. Opt. 2009, 14, 054005.

Structure (SMILES): COCCOCCOCCOCCOCCOCCOCCOCC[N+]1=C(/C=C/C=C/C=C2/N(CCCCCC(=O)NCCOCCOCCNC(=O)CCC(=O)NCCCC[C@H](NC(=O)CCC(=O)NCCOCCOCCNC(=O)CCCCCN3/C(=C/C=C/C=C/C4=[N+](CCOCCOCCOCCOCCOCCOCCOCCOC)c5ccc6ccccc6c5C4(C)C)C(C)(C)c4c3ccc3ccccc43)C(=O)NCCOCCOCCNC(=O)CCC(=O)NCCOCCOCCNC(=O)CCC(=O)OC(C)(C)C)c3ccc4ccccc4c3C2(C)C)C(C)(C)c2c1ccc1ccccc21 [Compound 5]
QY, fluorescence quantum yield ([1]; Acetone): 25.0%
λabs, position of the absorption maximum ([1]; Acetone): 683 nm
λem, position of the emission maximum ([1]; Acetone): 708 nm
QY, fluorescence quantum yield ([1]; Acetonitrile): 22.7%
λabs, position of the absorption maximum ([1]; Acetonitrile): 681 nm
λem, position of the emission maximum ([1]; Acetonitrile): 703 nm
QY, fluorescence quantum yield ([1]; EtOH): 26.5%
λabs, position of the absorption maximum ([1]; EtOH): 685 nm
λem, position of the emission maximum ([1]; EtOH): 708 nm
QY, fluorescence quantum yield ([1]; H2O): 0.4%
λabs, position of the absorption maximum ([1]; H2O): 630 nm
λem, position of the emission maximum ([1]; H2O): 708 nm
QY, fluorescence quantum yield ([1]; MeOH): 21.1%
λabs, position of the absorption maximum ([1]; MeOH): 682 nm
λem, position of the emission maximum ([1]; MeOH): 708 nm
Fluorescence turn-on ([1]; ratio of quantum yields in EtOH to that in water (200 nM), Cy5.5 dimers): 66

Structure (SMILES): C#CCNC(=O)CCNC(=O)CCC(=O)NCCOCCOCCNC(=O)CCC(=O)NCCOCCOCCNC(=O)[C@H](CCCCNC(=O)CCC(=O)NCCOCCOCCNC(=O)CCCCCN1/C(=C/C=C/C=C/C2=[N+](CCOCCOCCOCCOCCOCCOCCOCCOC)c3ccc4ccccc4c3C2(C)C)C(C)(C)c2c1ccc1ccccc21)NC(=O)CCC(=O)NCCOCCOCCNC(=O)CCCCCN1/C(=C/C=C/C=C/C2=[N+](CCOCCOCCOCCOCCOCCOCCOCCOC)c3ccc4ccccc4c3C2(C)C)C(C)(C)c2c1ccc1ccccc21.O=C([O-])C(F)(F)F.O=C([O-])C(F)(F)F [dCy5.5-PEG]
QY, fluorescence quantum yield ([2]; 1,4-Dioxane): 28%
λabs, position of the absorption maximum ([2]; 1,4-Dioxane): 689 nm
λem, position of the emission maximum ([2]; 1,4-Dioxane): 718 nm
QY, fluorescence quantum yield ([2]; DMF): 56%
λabs, position of the absorption maximum ([2]; DMF): 685 nm
λem, position of the emission maximum ([2]; DMF): 709 nm
QY, fluorescence quantum yield ([2]; EtOH): 26%
λabs, position of the absorption maximum ([2]; EtOH): 686 nm
λem, position of the emission maximum ([2]; EtOH): 710 nm
QY, fluorescence quantum yield ([2]; MeOH): 26%
λabs, position of the absorption maximum ([2]; MeOH): 682 nm
λem, position of the emission maximum ([2]; MeOH): 705 nm
Difference in QY between organic solvents and water (turn-on response) [2]: up to 140 fold
QY, fluorescence quantum yield ([2]; Water): 0.4%
λabs, position of the absorption maximum ([2]; Water): 629 nm
λem, position of the emission maximum ([2]; Water): 700 nm
Fluorescence maxima [2]: around 710 nm
Extinction coefficient, estimation for the dimer ([2]; open form (in MeOH), double of cyanine 2): 444 000 M^−1 cm^−1

Structure (SMILES): COCC[N+]1=C(/C=C/C=C/C=C2/N(CCCCCC(=O)NCCCC[C@H](NC(=O)CCCCCN3/C(=C/C=C/C=C/C4=[N+](CCOC)c5ccc(S(=O)(=O)O)cc5C4(C)C)C(C)(C)c4cc(S(=O)(=O)[O-])ccc43)C(=O)NCCOCCOCCNC(=O)CCC(=O)NCCOCCOCCNC(=O)CCC(=O)OC(C)(C)C)c3ccc(S(=O)(=O)[O-])cc3C2(C)C)C(C)(C)c2cc(S(=O)(=O)O)ccc21 [A]
QY, fluorescence quantum yield ([3]; Acetone): 3.4%
λabs, position of the absorption maximum ([3]; Acetone): 661 nm
λem, position of the emission maximum ([3]; Acetone): 684 nm
QY, fluorescence quantum yield ([3]; Acetonitrile): 19.8%
λabs, position of the absorption maximum ([3]; Acetonitrile): 656 nm
λem, position of the emission maximum ([3]; Acetonitrile): 678 nm
QY, fluorescence quantum yield ([3]; EtOH): 31.1%
λabs, position of the absorption maximum ([3]; EtOH): 654 nm
λem, position of the emission maximum ([3]; EtOH): 676 nm
QY, fluorescence quantum yield ([3]; H2O): 4.1%
λabs, position of the absorption maximum ([3]; H2O): 647 nm
λem, position of the emission maximum ([3]; H2O): 671 nm
QY, fluorescence quantum yield ([3]; MeOH): 28.2%
λabs, position of the absorption maximum ([3]; MeOH): 651 nm
λem, position of the emission maximum ([3]; MeOH): 673 nm
Fluorescence turn-on [3]: 7.6

Extinction coefficient ([2]; in MeOH): 222 000 M^−1 cm^−1
Structure (SMILES): COCCOCCOCCOCCOCCOCCOCCOCC[N+]1=C(/C=C/C=C/C=C2/N(CCCCCC(=O)O)c3ccc4ccccc4c3C2(C)C)C(C)(C)c2c1ccc1ccccc21.[I-] [cyanine 2, 2-((1E,3E,5E)-5-(3-(5-carboxypentyl)-1,1-dimethyl-1,3-dihydro-2H-benzo[e]indol-2-ylidene)penta-1,3-dien-1-yl)-1,1-dimethyl-3-(2,5,8,11,14,17,20,23-octaoxapentacosan-25-yl)-1H-benzo[e]indol-3-ium iodide]

Structure (SMILES): COCC[N+]1=C(/C=C/C=C/C=C2/N(CCCCCC(=O)NCCOCCOCCNC(=O)CCC(=O)NCCCC[C@H](NC(=O)CCC(=O)NCCOCCOCCNC(=O)CCCCCN3/C(=C/C=C/C=C/C4=[N+](CCOC)c5ccc(S(=O)(=O)O)cc5C4(C)C)C(C)(C)c4cc(S(=O)(=O)[O-])ccc43)C(=O)NCCOCCOCCNC(=O)CCC(=O)NCCOCCOCCNC(=O)CCC(=O)OC(C)(C)C)c3ccc(S(=O)(=O)[O-])cc3C2(C)C)C(C)(C)c2cc(S(=O)(=O)O)ccc21 [B]
QY, fluorescence quantum yield ([3]; Acetone): 0.4%
λabs, position of the absorption maximum ([3]; Acetone): 660 nm
λem, position of the emission maximum ([3]; Acetone): 683 nm
QY, fluorescence quantum yield ([3]; Acetonitrile): 6.6%
λabs, position of the absorption maximum ([3]; Acetonitrile): 658 nm
λem, position of the emission maximum ([3]; Acetonitrile): 677 nm
QY, fluorescence quantum yield ([3]; EtOH): 35.1%
λabs, position of the absorption maximum ([3]; EtOH): 653 nm
λem, position of the emission maximum ([3]; EtOH): 673 nm
QY, fluorescence quantum yield ([3]; H2O): 7.6%
λabs, position of the absorption maximum ([3]; H2O): 648 nm
λem, position of the emission maximum ([3]; H2O): 666 nm
QY, fluorescence quantum yield ([3]; MeOH): 33.0%
λabs, position of the absorption maximum ([3]; MeOH): 650 nm
λem, position of the emission maximum ([3]; MeOH): 673 nm
Fluorescence turn-on [3]: 4.6

Structure (SMILES): C#CCNC(=O)CCNC(=O)CCC(=O)NCCOCCOCCNC(=O)CCC(=O)NCCOCCOCCNC(=O)CCC(=O)NCCOCCOCCNC(=O)CCCCCN1/C(=C/C=C/C=C/C2=[N+](CCOCCOCCOCCOCCOCCOCCOCCOC)c3ccc4ccccc4c3C2(C)C)C(C)(C)c2c1ccc1ccccc21.O=C([O-])C(F)(F)F [mCy5.5-PEG]
QY, fluorescence quantum yield ([2]; 1,4-Dioxane): 59%
λabs, position of the absorption maximum ([2]; 1,4-Dioxane): 689 nm
λem, position of the emission maximum ([2]; 1,4-Dioxane): 712 nm
QY, fluorescence quantum yield ([2]; DMF): 50%
λabs, position of the absorption maximum ([2]; DMF): 686 nm
λem, position of the emission maximum ([2]; DMF): 709 nm
QY, fluorescence quantum yield ([2]; EtOH): 34%
λabs, position of the absorption maximum ([2]; EtOH): 686 nm
λem, position of the emission maximum ([2]; EtOH): 709 nm
QY, fluorescence quantum yield ([2]; MeOH): 32%
λabs, position of the absorption maximum ([2]; MeOH): 681 nm
λem, position of the emission maximum ([2]; MeOH): 705 nm
Difference in QY between organic solvents and water (turn-on response) [2]: < 2.7 fold
QY, fluorescence quantum yield ([2]; Water): 22%
λabs, position of the absorption maximum ([2]; Water): 679 nm
λem, position of the emission maximum ([2]; Water): 700 nm
Fluorescence maxima [2]: around 710 nm
Absorption maxima ([2]; in water and in MeOH): around 680 nm
